Source: patent US20100048732A1, “Method of mediating Airway Smooth Muscle Construction Due to Airway Irritation” (priority 2006, published 2010)
Starred links: 1 amine or outer side, 2 acyl side, 3 side chain; linkers in the order of their positions; H or OH if unused. Positions of bridges follow the written chain, without caps; N, C: chain ends. Non-standard residues stand in square brackets, D forms with d. Residues, ends and D or L forms follow the SMILES beside them. No end group written: not given here. *: point of attachment. X2 = CN(/C(=C\c1ccc(O)cc1)C(=O)[*:2])[*:1]; X1 = CCCCCc1ccccc1CCC(=O)*

Legend:
[1] = system: substance P contraction, human tracheal rings; test: Substance P contraction of human tracheal rings in organ baths and its relaxation; type: cell-based; conditions: human tracheal rings in organ baths; for relaxation of substance P contraction in human tracheal rings: cumulative concentrations, FIG. 5, FIG. 9
Description: (§1) (FIG. 9.) To determine if the mechanism of propofol's relaxation of a tachykinin response was mediated by GABAA receptors, the ability of an antagonist of GABAA receptors should inhibit propofol's response was evaluated. […] (FIG. 10.)

[2] = system: cholinergic nerve mediated contractions, guinea pig tracheal rings; test: Relaxation of cholinergic nerve mediated contractions in guinea pig tracheal rings; type: cell-based; conditions: clinically relevant concentrations, FIG. 1, FIG. 3C-D
Description: To distinguish between the two possibilities, intravenous anesthetics were evaluated for their effects on attenuating bronchoconstriction induced by activation of the cholinergic nerves (liberating acetylcholine). […] (FIG. 1.)
(§2) Propofol is known to have preferential protective airway effects during intubation compared to other intravenous anesthetics (3, 4). To determine if two other commonly used intravenous anesthetics have similar protective airway effects on contractile challenges, etomidate and ketamine were evaluated to determine their ability to relax airway smooth muscle contraction induced by NANC nerve stimulation (FIGS. 3A and B), cholinergic nerve stimulation (FIGS. 3C and D), and exogenous addition of substance P (FIGS. 3E and F) to isolated guinea pig tracheal rings in organ baths.

[3] = system: NANC contractions, epithelium-denuded guinea pig tracheal rings; test: Relaxation of NANC (C fiber, neurally liberated tachykinin) contractions in guinea pig tracheal rings; type: cell-based; conditions: clinically relevant concentrations, FIG. 2, FIG. 3A-B
Description: (§3) Substance P is an endogenous tachykinin released in airways by C fibers during irritation of the airway.
as §2

[4] = system: substance P contraction, guinea pig tracheal rings; test: Relaxation of substance P-induced contraction in guinea pig tracheal rings; type: cell-based; conditions: FIG. 2, FIG. 3E-F, FIG. 8
Description: as §3, §2
Propofol's effect as an anesthetic is modulated by an allosteric potentiation of GABA at GABAA receptors in the brain. However, we are unaware of any report that GABAA receptors have been found on airway smooth muscle.

[5] = system: histamine induced contractions, guinea pig tracheal rings; conditions: within clinically relevant concentrations, FIG. 4
Description: (§5) To determine if propofol and thiopental have the ability to relax histamine or endothelial induced contractions, propofol and thiopental were evaluated at clinical and supra-clinical concentrations to determine their ability to relax histamine or endothelin-1 induced contractions in guinea pig tracheal rings.

[6] = system: NK1-induced contraction, guinea pig tracheal rings; conditions: guinea pig tracheal rings stimulated with acetyl-substance P; FIG. 6A
From the text: (§4) Guinea pig tracheal rings stimulated with acetyl-substance P to produce an NK1-induced contraction (FIG. 6A) and with neurokinin A to produce an NK2-induced contraction (FIG. 6B).

[7] = system: NK2-induced contraction, guinea pig tracheal rings; conditions: guinea pig tracheal rings stimulated with neurokinin A; FIG. 6B
From the text: as §4

[8] = system: acetylcholine-induced contractions, isolated rings of guinea pig trachea; conditions: isolated guinea pig tracheal rings; clinically significant/relevant concentrations; FIG. 1
From the text: Intravenous anesthetics were compared for their ability to relax airway smooth muscle contractions in isolated rings of guinea pig trachea in response to acetylcholine.

[9] = system: permeabilized canine tracheal smooth muscle cells; conditions: absence or presence of muscarinic receptor activation, propofol 270 μM; cited from earlier work
[10] = system: endothelin-1 induced contractions, guinea pig tracheal rings; conditions: within clinically relevant concentrations, FIG. 4
Description: as §5

[11] = system: methacholine, histamine-induced (neural component) or vagal nerve-induced bronchoconstriction; conditions: neural component of histamine-induced, or vagal nerve-induced bronchoconstriction; cited from earlier work
[12] = system: vagal nerve induced bronchospasm; conditions: sheep; delivery via the bronchial artery; cited from earlier work
[13] = system: L-type calcium channels, intracellular calcium changes, inositol phosphate synthesis in airway smooth muscle; conditions: above clinically achieved concentrations; cited from earlier work
[14] = system: methacholine induced bronchoconstriction; conditions: sheep; delivery via the bronchial artery; cited from earlier work
[15] = system: contractile responses from acetylcholine, histamine, and endothelin in airway tissues; conditions: airway tissues from humans and animal models; cited from earlier work
guinea pig airway rings = conditions: cited from earlier work
GABAA receptors = conditions: FIG. 10
Description: as §1

[16] = system: bradykinin induced bronchoconstriction; conditions: asthmatics; cited from earlier work

## Substance P (RPKPQQFFGLM-NH2; ends and bridges not checked; UniProt P20366 58-68, looked up) [endogenous tachykinin released in airways by C fibers during irritation of the airway]
[1]; FIG. 5
  contraction of human tracheal rings: dose-dependently contracted

## CNC1(c2ccccc2Cl)CCCCC1=O (stereo not shown) [ketamine]
[2]
  relaxation of cholinergic nerve mediated contractions: failed to relax
[3]
  attenuation/relaxation of NANC contractions (neurally liberated tachykinins): failed to relax
[4]
  attenuation/relaxation of substance P (exogenous tachykinin) contraction: failed to relax

## CC(C)c1cccc(C(C)C)c1O [propofol, 2,6-diisopropylphenol]
[2]
  relaxation of cholinergic nerve mediated contractions: failed to relax
[5]
  relaxation of histamine induced contraction: neither anesthetic effected the spontaneous relaxation
[6]
  relaxation of NK1-induced contraction: much less effective
[7]
  relaxation of NK2-induced contraction: significantly relaxed
[8]
  relaxation of acetylcholine-induced contractions: without effect
[9]
  calcium sensitivity: not effected
[10]
  relaxation of endothelin-1 induced contraction: neither anesthetic effected the spontaneous relaxation
[11]
  propofol concentration attenuating bronchoconstriction in dogs: 20 mg/mL
[3]
  attenuation/relaxation of NANC contractions (neurally liberated tachykinins): more effective than thiopental
[12]
  propofol dose attenuating vagal nerve induced bronchospasm: 0.3 mg/min
[13]
  propofol concentration needed for effects on L-type calcium channels, intracellular calcium or inositol phosphate signaling: > 100 µM
[14]
  propofol dose attenuating methacholine induced bronchoconstriction: 3 mg/min
[4]
  attenuation/relaxation of substance P (exogenous tachykinin) contraction: more effective than thiopental
[15]
  propofol concentration attenuating contractile responses from acetylcholine, histamine, endothelin: 100 to 300 µM
[1]
  relaxation of substance P contraction in human tracheal rings: dose-dependently relaxed

## NCc1cc(=O)[nH]o1 [muscimol]
Guinea pig airway rings
  effect on acetylcholine-induced contraction: failed to show an effect
  effect on basal tone: failed to show an effect
[4]
  attenuation/relaxation of substance P (exogenous tachykinin) contraction: dose-dependently relaxed
[1]
  relaxation of substance P contraction in human tracheal rings: dose dependently relaxed

## COc1ccc(-c2ccc(=N)n(CCCC(=O)O)n2)cc1 [Gabazine]
GABAA receptors
  reversal of propofol mediated relaxation of a substance P contraction: able to reverse propofol mediated relaxation

## CCOC(=O)c1cncn1[C@H](C)c1ccccc1 [etomidate]
[2]
  relaxation of cholinergic nerve mediated contractions: failed to relax
[3]
  attenuation/relaxation of NANC contractions (neurally liberated tachykinins): failed to relax
[4]
  attenuation/relaxation of substance P (exogenous tachykinin) contraction: failed to relax

## CCCCCc1ccccc1CCC(=O)NC1C(=O)N(C)/C(=C\c2ccc(O)cc2)C(=O)NC(CC(C)C)C(=O)NC(Cc2ccccc2)C(=O)NC(C(C)O)C(=O)NC(CC(N)=O)C(=O)NC(CO)C(=O)OC1C (stereo not shown) [FK224] (X1-T[X2]LFTNS; ester 1-C; configuration not given here)
[16]
  effect on bradykinin induced bronchoconstriction: attenuated bradykinin induced bronchoconstriction

## CCCC(C)C1(CC)C(=O)NC(=S)NC1=O (stereo not shown) [thiopental]
[5]
  relaxation of histamine induced contraction: neither anesthetic effected the spontaneous relaxation
[8]
  relaxation of acetylcholine-induced contractions: dose-dependently relaxed
[10]
  relaxation of endothelin-1 induced contraction: neither anesthetic effected the spontaneous relaxation
